These results are taken from US20140288073A1, “Method of Treating Gastrointestinal Stromal Tumors” (NOVARTIS AG, priority 2011, published 2014).

Entries after “also recorded” stand apart in the source; their conditions may differ.

In one experiment the test system is GIST-T1 cells. The experiment can be described thus: CellTiter-Glo cell viability/proliferation assay, GIST-T1. The following applies: for Inhibition of proliferation as single agent: GIST-T1 (ex11del KIT), Example 2; for Combination Index for 70% inhibition of GIST cell proliferation / Synergy Score for inhibition of GIST cell proliferation: Imatinib combined with the compound. The class given is cell-based, human. The text has this:
(§1) GIST882, GIST48 and GIST430 cell lines were obtained from the Brigham and Women's Hospital, Boston, Mass. GIST882 was established from an untreated human GIST with a homozygous missense mutation in KIT exon 13, encoding a […] mutant KIT protein ([…], et al. Oncogene 2001; 20: 5054-5058). […] GIST48 has a primary homozygous exon 11 missense mutation […]) and a secondary heterozygous exon 17 missense mutation […]). GIST430 has a primary heterozygous exon 11 in-frame deletion and a secondary heterozygous exon 13 missense mutation (V654A). GIST-T1 was obtained from Kochi Medical School, Kochi, Japan. It was established from a metastatic human GIST with a heterozygous […] bases in exon 11 of KIT (Taguchi T, Sonobe H, Toyonaga S, et al. Lab Invest 2002; 82: 663-665). […] Cell proliferation was measured using the CellTiter-Glo luminescent cell viability assay (Promega catalog #G755B) and Victor4 plate reader (Perkin Elmer). Synergy scores and CI70 calculations were determined as described elsewhere (Lehar J, Krueger A S, et al. Nat Biotechnol 2009; 27: 659-666).

For another experiment, the system named is GIST cell lines. Put plainly: Combination effect on growth of GIST cell lines (FIG. 6). The class given is cell-based, human. The following applies: combination with nilotinib, presence of 20 ng/ml FGF2, monophosphate. As to the method: FIG. 6: Combination effect of nilotinib plus BGJ398 in GIST cell lines in the presence of 20 ng/ml FGF2.
10,000 cells suspended in 80 μl media were seeded into each well of a 96-well cell-culture plate and grown for 24 hours prior to treatment. 10 μl of 60 μg/mL heparin (Sigma Catalog # H3149) was added to each well, and then 10 μl of 50 μg/mL FGF2 (R&D Catalog #233-FB/CF) or media was added to each well of the plates. 10 μl of each of the compound dilutions described above and 10 μl of media were added to wells to a final volume 120 μl such that all pair-wise combinations as well as the single agents were represented. Cells were incubated for 72 hrs at 37° C. in a 5% CO2 incubator following compound addition. Cell proliferation was measured using the CellTiter-Glo luminescent cell viability assay (Promega catalog #G755B) and Victor4 plate reader (Perkin Elmer). Synergy scores and CI70 calculations were determined as described elsewhere (Lehar J, Krueger A S, et al. Nat Biotechnol 2009; 27: 659-666).

The subject of another experiment is GIST882 cells. Put plainly: CellTiter-Glo cell viability/proliferation assay, GIST882. In kind it is cell-based, human. The following applies: for Inhibition of proliferation as single agent: GIST882 (K642E mutant KIT), Example 2; for Combination Index for 70% inhibition of GIST cell proliferation / Synergy Score for inhibition of GIST cell proliferation: Imatinib combined with the compound.
Source text: as §1

In a further experiment the test system is GIST430 cells. Put plainly: CellTiter-Glo cell viability/proliferation assay, GIST430. In kind it is cell-based, human. The following applies: for Inhibition of proliferation as single agent: GIST430 (ex11del/V654A KIT), Example 2; for Growth suppression in combination with imatinib versus single agent treatment / Combination Index for 70% inhibition of GIST cell proliferation / Synergy Score for inhibition of GIST cell proliferation: GIST430; for Combination Index for 70% inhibition of GIST cell proliferation / Synergy Score for inhibition of GIST cell proliferation: Imatinib combined with the compound.
Source text: as §1

Another experiment deals with GIST48 cells. The experiment can be described thus: CellTiter-Glo cell viability/proliferation assay, GIST48. In kind it is cell-based, human. The following applies: for Inhibition of proliferation as single agent: Example 2; for Combination Index for 70% inhibition of GIST cell proliferation / Synergy Score for inhibition of GIST cell proliferation: Imatinib combined with the compound.
Source text: as §1

For experiment [1], the system named is GIST. The settings on record: cited from earlier work.
The subject of experiment [2] is GIST. The settings on record: cited from earlier work. This is another data set of the same source.
[3] abbreviates: GIST-T1, absence of FGF2, 3 days.
Setting [4] is: GIST-T1, presence of added FGF2, 3 days.
Setting [5] is: GIST882, absence of FGF2, 3 days.
Setting [6] is: GIST882, presence of added FGF2, 3 days.
Setting [7] is: GIST882, combination with imatinib.

On to `CCN1CCN(c2ccc(Nc3cc(N(C)C(=O)Nc4c(Cl)c(OC)cc(OC)c4Cl)ncn3)cc2)CC1.O=P(O)(O)O` [BGJ398, 3-(2,6-dichloro-3,5-dimethoxy-phenyl)-1-{6-[4-(4-ethyl-piperazin-1-yl)-phenylamino]-pyrimid-4-yl}-1-methyl-urea monophosphate], for which the “Growth inhibition as single agent” value in the experiment on GIST-T1 cells (setting [3]), in the experiment on GIST-T1 cells (setting [4]), in the experiment on GIST882 cells (setting [5]) and with GIST882 cells (setting [6]) was “did not significantly affect the viability” in each case. For the same molecule, the “Combination effect on growth inhibition” value with GIST-T1 cells (GIST-T1, combination with imatinib, presence of FGF2 (20 ng/ml)) is reported as “strong combination effects”; in the experiment with GIST cell lines it was “strong combination effects; also recorded: synergy”; in the experiment with GIST882 cells (GIST882, combination with imatinib, presence of FGF2 (20 ng/ml)), “strong combination effects”.
As for `Cn1c(=O)n(-c2ccc(C(C)(C)C#N)cc2)c2c3cc(-c4cnc5ccccc5c4)ccc3ncc21` [COMPOUND A, 2-methyl-2-[4-(3-methyl-2-oxo-8-quinolin-3-yl-2,3-dihydro-imidazo[4,5-c]quinolin-1-yl)-phenyl]-propionitrile], the “Inhibition of proliferation as single agent” value (from here on “Inhibition of proliferation”) in the experiment with GIST-T1 cells, in the experiment on GIST430 cells, in the experiment on GIST48 cells and in the experiment on GIST882 cells was “inhibited the proliferation of all four cell-lines at low micromolar concentrations” in each case. The “Combination Index for 70% inhibition of GIST cell proliferation” value (shortened to “Combination Index for 70% inhibition”) in the experiment with GIST-T1 cells (GIST-T1) is recorded as 0.493; with GIST430 cells, 0.260; in the experiment with GIST48 cells, 1.25; with GIST882 cells (GIST882) it was 0.194. In addition, the “Synergy Score for inhibition of GIST cell proliferation” value (“Synergy Score for inhibition” below) amounted to 1.10 in the experiment with GIST-T1 cells (GIST-T1), 2.06 with GIST430 cells, 0.38 in the experiment with GIST48 cells and 5.07 in the experiment with GIST882 cells (GIST882). The “Growth suppression in combination with imatinib versus single agent treatment” value with GIST430 cells and in the experiment with GIST882 cells (setting [7]) was “growth suppression was observed in excess of the percent inhibition achieved by imatinib or COMPOUND A single agent treatment” throughout.
Turning to `Nc1cc(C(F)(F)F)c(-c2cc(N3CCOCC3)nc(N3CCOCC3)n2)cn1` [COMPOUND C, 5-(2,6-di-morpholin-4-yl-pyrimidin-4-yl)-4-trifluoromethyl-pyridin-2-ylamine], the “Inhibition of proliferation” value in the experiment on GIST-T1 cells, with GIST430 cells, in the experiment on GIST48 cells and in the experiment on GIST882 cells was “inhibited the proliferation of all four cell-lines at low micromolar concentrations” throughout. Moreover, the “Combination Index for 70% inhibition” value in the experiment with GIST-T1 cells (GIST-T1) is given as 0.782; with GIST430 cells, 0.252; with GIST48 cells, 0.716; in the experiment with GIST882 cells (GIST882), 0.597. The “Synergy Score for inhibition” value is listed as 1.29 in the experiment on GIST-T1 cells (GIST-T1), 1.96 in the experiment with GIST430 cells, 1.20 in the experiment on GIST48 cells and 1.90 in the experiment with GIST882 cells (GIST882). For the same molecule, the “Growth suppression in combination with imatinib versus single agent treatment” value in the experiment on GIST430 cells and in the experiment with GIST882 cells (setting [7]) was “growth suppression was observed in excess of the percent inhibition achieved by imatinib or COMPOUND C single agent treatment” each time.
In the case of `Cc1nc(NC(=O)N2CCC[C@H]2C(N)=O)sc1-c1ccnc(C(C)(C)C(F)(F)F)c1` [COMPOUND D, (S)-pyrrolidine-1,2-dicarboxylic acid 2-amide 1-({4-methyl-5-[2-(2,2,2-trifluoro-1,1-dimethyl-ethyl)-pyridin-4-yl]-thiazol-2-yl}-amide)], the “Inhibition of proliferation” value with GIST-T1 cells, with GIST430 cells, in the experiment on GIST48 cells and in the experiment with GIST882 cells was “little or no effect” in each case. The “Combination Index for 70% inhibition” value is recorded as 0.988 in the experiment on GIST-T1 cells (GIST-T1), 0.791 in the experiment with GIST430 cells and 1.18 in the experiment with GIST48 cells. Moreover, the “Synergy Score for inhibition” value with GIST-T1 cells (GIST-T1) is 1.06; in the experiment on GIST430 cells, 2.04; in the experiment with GIST48 cells it was 1.98; in the experiment on GIST882 cells (GIST882) it was 0.46. Also, the “Growth suppression in combination with imatinib versus single agent treatment” value in the experiment with GIST430 cells and with GIST48 cells (combination with imatinib) was “growth suppression was observed in excess of the percent inhibition achieved by imatinib or COMPOUND D single agent treatment” in each case.
Take `Cc1ccc(NC(=O)c2ccc(CN3CCN(C)CC3)cc2)cc1Nc1nccc(-c2cccnc2)n1` [imatinib, 4-(4-methylpiperazin-1-ylmethyl)-N-[4-methyl-3-(4-(pyridin-3-yl)pyrimidin-2-ylamino)phenyl]-benzamide, reference compound]: in the experiment on GIST [1] (800 mg/day compared to 400 mg/day, advanced GIST harboring KIT exon 9 mutations), the “Progression-free survival (PFS)” value was “significantly improves”. Moreover, the “Patients progressing after 2 years of first line therapy” value in the experiment with GIST [1] (advanced GIST, first line therapy) is recorded as “more than 50%”. Further, the “Inhibition of proliferation” value in the experiment with GIST-T1 cells is given as “potently inhibited”; in the experiment on GIST430 cells, “potently inhibited”; with GIST48 cells, “imatinib resistant”; with GIST882 cells, “potently inhibited”. For the same molecule, the “Growth inhibition as single agent” value in the experiment on GIST-T1 cells (setting [3]) is “efficacious”; with GIST-T1 cells (setting [4]), “less sensitive”; with GIST882 cells (setting [5]), “efficacious”; in the experiment on GIST882 cells (setting [6]) it was “less sensitive”. The “Recurrence-free survival (RFS)” value in the experiment on GIST [2] (400 mg/day for 12 months compared with placebo, after complete resection (ACOSOGZ9001)) was “significantly prolonged”. Also, the “RFS and overall survival” value in the experiment with GIST [2] (36 months versus 12 months adjuvant therapy, 400 mg once daily (SSGXVIII/AIO)) is given as “superior to 12 months”.
As for `Cc1cn(-c2cc(NC(=O)c3ccc(C)c(Nc4nccc(-c5cccnc5)n4)c3)cc(C(F)(F)F)c2)cn1` [nilotinib, 4-methyl-3-[[4-(3-pyridinyl)-2-pyrimidinyl]amino]-N-[5-(4-methyl-1H-imidazol-1-yl)-3-(trifluoromethyl)phenyl]benzamide, reference compound], the “GI50 shift in the presence of added FGF2” value was “greater than 10 fold” in the experiment with GIST-T1 cells (GIST-T1, 3 days, with vs without added FGF2 (50, 25, 12 ng/ml)) and “greater than 10 fold” in the experiment with GIST882 cells (GIST882, 3 days, with vs without added FGF2 (50, 25, 12 ng/ml)). Moreover, the “Growth inhibition as single agent” value in the experiment with GIST-T1 cells (setting [3]) and in the experiment with GIST882 cells (setting [5]) was “sensitive” throughout.
